Assay results published in PubChem BioAssay (NCI).
Several values for one entry are separate records, joined by “and”; a condition that tells them apart may be missing. Identical values can stand only once.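 The compound was tested at five concentrations on cells cultured in 96-well plates, with a 48-hour exposure period. At the GI50, growth is halved. At the TGI there is no net growth.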

How the values were obtained:
Assay in all cases: DTP human tumour cell line panel, 48 h
[1] = system: ACHN renal
[2] = system: SK-MEL-2 melanoma
[3] = system: SNB-19 CNS
[4] = system: HL-60(TB) leukemia
[5] = system: 786-0 renal
[6] = system: LOX IMVI melanoma
[7] = system: HCC-2998 colon
[8] = system: SK-MEL-28 melanoma
[9] = system: SF-539 CNS
[10] = system: MOLT-4 leukemia

Structure (SMILES) | GI50 [1] | TGI [1] | GI50 [2] | TGI [2] | GI50 [3] | TGI [3] | GI50 [4] | TGI [4] | GI50 [5] | TGI [5] | GI50 [6] | TGI [6] | GI50 [7] | TGI [7] | GI50 [8] | TGI [8] | GI50 [9] | TGI [9] | GI50 [10] | TGI [10]
CN(C(=O)CNC(=O)/C=C/c1cccc(Cl)c1)C1CCS(=O)(=O)CC1 | 46.4 µM | > 100 µM | 15.6 µM | > 100 µM | > 100 µM | > 100 µM | 2.07 µM | > 100 µM | 4.57 µM | > 100 µM | 0.7 µM | > 100 µM | 0.663 µM | > 100 µM | 59.3 µM | > 100 µM | 7.28 µM | > 100 µM | 2.12 µM | > 100 µM
Cn1cc(-c2nc(N[C@@H]3CCCC[C@@H]3N)c(F)c3c2C(=O)NC3)cn1 | 3.08 µM and 4.65 µM | > 100 µM | 20.5 µM and 24.9 µM | > 100 µM | 27.3 µM and 29 µM | > 100 µM | 9.21 µM and 11.2 µM | 37 µM and 40.9 µM | 3.99 µM and 6.36 µM | 22.1 µM and > 52.4 µM | 2.95 µM and 3.81 µM | 14.1 µM and 16.2 µM | 26.6 µM and 28.2 µM | > 100 µM | 8.96 µM and 10.8 µM | > 100 µM | 2.81 µM and 3.16 µM | 13.9 µM and 16.1 µM | 4.74 µM and 6.87 µM | > 80.2 µM and 98.9 µM
COc1cccc(NC2=C(Cl)C(=O)N(Cc3ccc(Cl)cc3)C2=O)c1 | 6.43 µM | 49.2 µM | 12.5 µM | > 23.8 µM | 8.25 µM | > 100 µM | 3.15 µM | 60.8 µM | 1.54 µM | 8.39 µM | 1.45 µM | > 35.3 µM | 2.64 µM | 12.7 µM | 8.37 µM | 36.3 µM | 1.73 µM | 5.7 µM | 1.36 µM | > 100 µM
O=C(/C=C/c1cccc2ccccc12)Nc1ncc(Cc2ccccc2)s1 | 1.95 µM | 6.02 µM | 1.41 µM | > 100 µM | 0.971 µM | > 100 µM | 0.669 µM | 3.58 µM | 0.704 µM | 3.27 µM | 0.445 µM | 11 µM | 2.57 µM | > 100 µM | 3.89 µM | > 100 µM | 0.716 µM | 2.92 µM | 1.65 µM | > 100 µM
CC(/C=N/N=C(N)N)=N\N=C(N)N | > 43.5 µM | 2110 µM | 28.9 µM | 149 µM | 14.5 µM | 722 µM | 69.1 µM | 578 µM | 6.12 µM and 1.67 µM | > 83.6 µM and 19.7 µM | 29.9 µM | 202 µM | 9.52 µM | > 48.3 µM and 62.7 µM | > 80.2 µM | 363 µM | 21.8 µM | 103 µM | 28.2 µM | 463 µM
Oc1ccc(Cl)cc1/C=N\NC(=S)N/N=C/c1cc(Cl)ccc1O | 2.35 µM | > 100 µM | 1.87 µM | 10.1 µM | 3.4 µM | > 100 µM | 1.37 µM | 4.23 µM | 1.43 µM | 4.52 µM | 1.65 µM | > 100 µM | 3.55 µM | 86.8 µM | 4.58 µM | > 100 µM | 2.8 µM | 90.8 µM | 2.23 µM | 7.62 µM
